Read-outs that look alike come from different tables or passages of the source.

Data set [1] relates to POLR2A Ser2 phosphorylation (CDK9). In words: POLR2A Ser2 phosphorylation imaging assay in MCF-7 cells. Format: cell-based. As to conditions: Homo sapiens, MCF7, 2 h, read-out: POLR2A Ser2 phosphorylation IC50. Put shortly:
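MCF-7 cells were fixed, permeabilised and immunostained for POLR2A phospho-Ser2, then imaged by high-content microscopy. Levels were normalised to controls and IC50 values derived.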

The subject of data set [2] is 97 targets (GPCRs, ion channels, transporters, enzymes, kinases). In words: Secondary pharmacology panel (Eurofins CEREP). To be noted: compared with Compound 6.
Protocol: Secondary pharmacology assays were performed at Eurofins CEREP using standard experimental techniques. Specifically, radioligand binding assays were used to assess the ability of test compounds to interact with G-protein coupled receptors (GPCRs), ion channels, and transmembrane transporters. Assays measuring substrate turnover or phosphorylation by isolated proteins were used for enzyme and kinase targets, allowing direct determination of the mode of action of the tested compounds.
A short description of data set [3]: Aqueous thermodynamic solubility, shake-flask. Format: physicochemical. To be noted: aqueous phosphate buffer, 25 °C, pH 7.4, aqueous buffer, thermodynamic from solid, phosphate buffer 0.1 M, pH 7.4, 24 hours. Put shortly: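 After 24 h stirring at 25° C. in pH 7.4 phosphate buffer (0.1 M), solid-free supernatant from two centrifugations was quantified by UPLC/MS/MS after dilution in water. Compound was added as dried material after DMSO removal.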

The test system of data set [4] is OVCAR3 cells. As to the kind of experiment: Cellular proliferation EdU assay, OVCAR3. Format: cell-based, human. To be noted: Homo sapiens, OVCAR-3, 48 h, EdU assay, two days; read-out: OVCAR3 IC50. The method, boiled down:
(§1)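 MCF-7 (800 cells/well) and OVCAR3 (1200 cells/well) in RPMI with 10% FBS exposed to compounds for two days at 37 °C.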

The target in data set [5] is 379 non-CDK kinase (or non-CDK kinase-complex) targets. As to the kind of experiment: Kinase profiling (SelectScreen, ThermoFisher). The format is biochemical. To be noted: compared with Compound 6. An excerpt: Test compounds were profiled against a broad panel of kinases at ThermoFisher Scientific using the SelectScreen Kinase Profiling Services. Each kinase assay used one of the following assay technology protocols: • 1) Z-LYTE™ Screening Protocol and Assay Conditions (Revised 23 Jan. 2018 version) available at http://assets.thermofisher.com/TFS-Assets/BID/Methods-&-Protocols/20180123_SSBK_Customer_Protocol_and_Assay_Conditions.pdf; • 2) Adapta™ Screening Protocol and Assay Conditions (Revised 23 Jan. 2018 version) available at http://assets.thermofisher.com/TFS-Assets/BID/Methods-&-Protocols/20180123_SSBK_Adapta_Customer_Protocol_and_Assay_Conditions.pdf; or • 3) LanthaScreen™ Eu Kinase Binding Assay Screening Protocol and Assay Conditions (Revised 23 Jan. 2018 version) available at http://assets.thermofisher.com/TFS-Assets/BID/Methods-&-Protocols/20180123_SSBK_LanthaScreen_Binding_Customer_Protocol_and_Assay_Co nditions.pdf.

Another data set concerns MCF-7 cells. In words: Cellular proliferation EdU assay, MCF-7. Format: cell-based. As to conditions: Homo sapiens, MCF7, 48 h, EdU assay, two days; read-out: MCF-7 IC50. The method, boiled down: as §1
Data set [6] relates to CTG-3283 human CDK4/6 resistant ER+ breast cancer xenograft. In words: Anti-tumor effect in CTG-3283 CDK4/6 resistant ER+ breast cancer xenograft model. Format: in vivo, mice. As to conditions: Palbociclib at 50 mg/kg orally once daily, 28 days. The protocol:
CTG-3283 ER+ breast xenograft tumors were harvested from donor mice and cut into fragments approximately 50 mm^3 in volume and then reimplanted adjacent to the #3 mammary fat pad.
CTG-3283 ER+ Breast PDX fragments were implanted orthotopically adjacent to the #3 mammary fat pad using a 10-gauge trocar in female NSG mice. […] Palbociclib was dosed orally once daily.

Data set [7] has as its system OVCAR3 cells. In words: Senescence β-galactosidase assay, OVCAR3. To be noted: 5 days, single agent. The format is cell-based, human. The protocol: Cells were then stained with a fluorescent dye to detect senescence-associated β-galactosidase (CellEvent Senescence Green detection kit, Thermo #C10850), diluted 1:1000 in the provided buffer, and incubated at 37° C. for 2 hours without CO2 in accordance with the manufacturer's instructions. DNA staining was performed using Hoechst 33342, diluted 1:2500 in PBS, for 15 minutes at room temperature, followed by two washes with PBS. Sample imaging was performed on a PerkinElmer Operetta CLS at lOX magnification to detect Hoechst 33342 (nuclei) and Alexa488 (senescence stain). Image analysis was performed in Harmony 4.1 software (PerkinElmer) to identify cells based on nuclear staining. Mean Alexa488 fluorescence intensity was measured within each cell, and the average was taken across all cells observed within each well. […] Data fitting was performed using Genedata Screener (Genedata AG) and combination effect was assessed using the highest single agent (HSA) model.

Data set [8] concerns OVCAR3 human ovarian cancer xenograft. In words: Anti-tumor effect in CCNE1 amplified ovarian xenograft model OVCAR3. Format: in vivo, mice. The protocol: 15 Million OVCAR3 human ovarian cells were implanted subcutaneously in the right flank of female CB17 SCID mice. Mice were randomized into groups of 8 when average tumor volume reached approximately 160 mm^3. […] Palbociclib was dosed orally once daily.

The subject of data set [9] is CTG-3298 human CDK4/6 resistant ER+ breast cancer xenograft. As to the kind of experiment: Anti-tumor effect in CTG-3298 CDK4/6 resistant ER+ breast cancer xenograft model. The format is in vivo, mice. To be noted: Palbociclib at 50 mg/kg orally once daily, 28 days. Here is the method:
CTG-3298 ER+ breast xenograft tumors were harvested from donor mice and cut into fragments approximately 50 mm^3 in volume and then reimplanted adjacent to the #3 mammary fat pad.
CTG-3298 ER+ Breast PDX fragments were implanted orthotopically adjacent to the #3 mammary fat pad using a 10-gauge trocar in female NSG mice. […] Palbociclib was dosed orally once daily.

The next data set concerns SKOV3 cells. As to the kind of experiment: Cell proliferation CyQUANT assay, SKOV3. The format is cell-based. As to conditions: Homo sapiens, SK-OV-3, 168 h; CyQUANT cell counts, 7 days. Here is the method: (§2) An imaging-based assay was used to investigate changes in cell number in OVCAR3 cells (CCNE1-amplified ovarian cancer cell line) and SKOV3 cells (non-amplified ovarian cancer cell line) treated with test compounds.
(§3) Cells were plated in 384 well plates (Perkin-Elmer 6057300) in RPMI-1640/10% FBS/1× L-Glu at 500 cells per well in 30 μL and incubated with test compound at 37° C. and 5% CO2 for 7 days. Cells were then stained using the CyQuant Direct Cell Proliferation Assay Kit (Thermo Cat #C7026) in accordance with the kit protocol. The stained cells were imaged using an Operetta high content imager to generate cell counts and IC50 values were calculated relative to DMSO controls.

In data set [10] the test system is OVCAR3 cells. As to the kind of experiment: Effect on cell cycle in OVCAR3 cell line (flow cytometry). The format is cell-based, human. To be noted: 20 to 24 hours, 0.03, 0.1, 0.3, 1, and 3 μM. Here is the method: Compounds were tested in the CCNE1-amplified ovarian cell line OVCAR3 to assess their effect on cell cycle phases G1 and S and potential off-target effects on cell cycle phases G2 and M.
OVCAR3 cells were seeded at 60,000 cells per well in 24 well plates, 4 wells per sample, in RPMI with 10% Fetal bovine serum. Test compounds were diluted in 96 well plates in dimethyl sulfoxide (DMSO) and then added to the wells containing the cells. The 24 well plates were placed in an incubator maintained at 37° C. and 5% CO2 and incubated for 20 to 24 hours. The next day an EdU assay was performed following the manufacturer's protocol (Thermo Fisher, C10425 EdU Alexa Fluor 488). Antibody staining was carried out using PE Mouse Anti-Cleaved PARP (BD Biosciences Catalog No. 552933) and 4′,6-diamidino-2-phenylindole (DAPI). Cells were then analyzed by flow cytometry.
On the technique in general: A flow cytometer gives signals particle by particle.

In data set [11] the test system is OVCAR3 cells. As to the kind of experiment: Cell proliferation CyQUANT assay, OVCAR3. As to conditions: Homo sapiens, OVCAR-3, 168 h; CyQUANT cell counts, 7 days. The format is cell-based. The protocol: as §2, §3

Turning to `CC[C@H](Nc1nc(N[C@H]2CCN(S(=O)(=O)c3ccn[nH]3)C2)c2ncn(CC)c2n1)[C@@H](C)O` [Example 62, (2R,3S)-3-((6-(((S)-1-((1H-pyrazol-5-yl)sulfonyl)pyrrolidin-3-yl)amino)-9-ethyl-9H-purin-2-yl)amino)pentan-2-ol], the IC50 in data set [1] (MCF-7 cells, 2 hours) was above 30000 nM; in the data set on OVCAR3 cells [4] it was 441 nM; with MCF-7 cells, 1400 nM. Also, the secondary pharmacology profile result in data set [2] was “broadly similar secondary pharmacology to Compound 6”. Moreover, the solubility at 24 h in data set [3] is above 1000 µM. In addition, the kinase inhibition profile result in data set [5] is recorded as “broadly similar kinase inhibition profiles to Compound 6”.
Regarding `CC(=O)c1c(C)c2cnc(Nc3ccc(N4CCNCC4)cn3)nc2n(C2CCCC2)c1=O` [Palbociclib, reference compound], the “% INHIBITION (end of dosing)” value in data set [6] was 46%; in [9], 49%. The induction of senescence entry in the data set on OVCAR3 cells [7] was “no effect was observed”. In data set [8] (Palbociclib at 50 mg/kg orally once daily, 28 days), the “% INHIBITION” value was determined as 9%.
Turning to `CC(C)[C@H](CO)Nc1nc(N[C@H]2CCN(S(C)(=O)=O)C2)c2ncn(C(C)C)c2n1` [Compound 20, (R)-2-((9-isopropyl-6-(((S)-1-(methylsulfonyl)pyrrolidin-3-yl)amino)-9H-purin-2-yl)amino)-3-methylbutan-1-ol], the IC50 was 2520 nM in the data set on SKOV3 cells; above 30000 nM in [1]; 188 nM with OVCAR3 cells [11]; 224 nM in the data set with OVCAR3 cells [4]; 665 nM with MCF-7 cells. Further, the “effect on cell cycle phase” value in the data set on OVCAR3 cells [10] was “increased the population of cells in the G0 and G1 phases”. For the same molecule, the “activity and tolerability in xenograft model” value in data set [8] (OVCAR3 xenograft) is “active and well tolerated”. Also, the kinase inhibition profile result in [5] was “broadly similar kinase inhibition profiles to Compound 6”.

For orientation: IC50 means the midpoint of a concentration-inhibition curve. What is called solubility is the dissolved amount per volume that the medium holds. Low readings indicate a poorly soluble substance, high ones a readily soluble substance.

These data come from patent US20250197425A1, “2,6,9-TRISUBSTITUTED PURINES” (ASTRAZENECA AB, priority 2022, published 2025).
